The format of this series is physicochemical.
The mark [1] stands for this setting: Table 3, accelerated for 0 month, hydroxysafflor yellow A per CN102675379A purity 89.9%, sodium salt purity 98.6%.
Setting [2] is: Table 3, accelerated for 1 month, hydroxysafflor yellow A per CN102675379A purity 89.9%, sodium salt purity 98.6%.
Setting [3] is: Table 3, accelerated for 2 months, hydroxysafflor yellow A per CN102675379A purity 89.9%, sodium salt purity 98.6%.
Setting [4] is: Table 3, accelerated for 3 months, hydroxysafflor yellow A per CN102675379A purity 89.9%, sodium salt purity 98.6%.
Where [5] appears, read: Table 4, accelerated for 0 month, hydroxysafflor yellow A by acidizing purity 99.2%, sodium salt purity 99.2%.
Setting [6] is: Table 4, accelerated for 2 months, hydroxysafflor yellow A by acidizing purity 99.2%, sodium salt purity 99.2%.
[7] abbreviates: Table 4, accelerated for 3 months, hydroxysafflor yellow A by acidizing purity 99.2%, sodium salt purity 99.2%.

SMILES strings stand for the structures. Where two headings read alike, the source gives them in different places.

Turning to `O=C(/C=C/c1ccc(O)cc1)C1=C(O)C(O)(C2OC(CO)C(O)C(O)C2O)C(O)=C(C2OC(CO)C(O)C(O)C2O)C1=O` (stereo not drawn) [Hydroxysafflor yellow A, hydroxysafflor yellow A], the “Content (counting Hydroxyl A)” value under setting [1] worked out at 89.8%; the “Content (counting Hydroxyl A)” value under setting [2] is 84.7%; the “Content (counting Hydroxyl A)” value under setting [3] came to 79.2%; the “Content (counting Hydroxyl A)” value under setting [4] is given as 71.2%; the “Content (counting Hydroxyl A)” value under setting [5] stood at 99.1%; the “Content (counting Hydroxyl A)” value under setting [6] is 89.2%. Also, the “Content (counting Hydroxyl A)” value under setting [7] is given as 81.3%. Besides, the Total impurity runs as follows: under setting [1], 10.1%; under setting [2], 14.9%; under setting [3], 20.8%; under setting [4], 28.6%; under setting [5], 0.8%; (Table 4, accelerated for 1 month, hydroxysafflor yellow A by acidizing purity 99.2%, sodium salt purity 99.2%) 5.9%. Moreover, the Total impurity stood at 10.7% under setting [6] and 18.6% under setting [7].

These data come from patent publication US9243019B2 (priority 2013, dated 2016).
